The record followed here is US20180289780A1, “OSTEOPONTIN AND THROMBIN-CLEAVED FRAGMENT THEREOF AND THEIR USE IN ATHEROSCLEROSIS PREVENTION, INFLAMMATION REDUCTION AND IMPROVING PLAQUE STABILITY” (CardioVax, LLC, priority 2017, published 2018).

In experiment [1] the test system is ApoE-/- mice. In words: Atherosclerotic plaque area: en face descending aorta, aortic arch, subvalvular lesions. The experiment is classed as in vivo. The settings on record: additional early study, short peptide, HFD 8 weeks. From the text:
Female C57BL/6 Apoe^-/- mice (Jaxmice, USA) were immunized with tcOPN-PADRE or equal amounts of PADRE peptide using Alum (Pierce) as adjuvant, followed by two booster injections after two and five weeks (FIG. 1B). During the advanced study all mice received a final booster one weak prior to termination in order to analyze the effect on immune cells (FIG. 1B). Mice were fed a high-fat diet (HFD), 21% cocoa fat, 0.15% cholesterol, starting one week after the last booster injection. For early assessment of atherosclerosis mice were kept on HFD during 8 weeks before sacrifice. Mice that were allowed to develop a more advanced stage of atherosclerosis were kept on HFD during 15 weeks (FIG. 1B). For early atherosclerosis assessment two different lengths of immunized tcOPN-PADRE peptides (SEQ ID Nos: 6 and 7) were evaluated, while for advanced atherosclerosis assessment mice were immunized with shorter tcOPN-PADRE (SEQ ID No: 6) which was based on a tcOPN of 11 amino acids (SEQ ID NO: 4). Tissue was preserved as described previously. […] Cytokine levels for IL-1β, IL-2, IL-4, IL-5, IL-6, IL-10, IL-13, IL-17, IL-12(p70), IFNγ, TNFα and MCP-1 were analyzed in plasma using Bioplex multiplex technology (Bio-Rad) according to manufacturer's protocol. Plasma levels for OPN and tcOPN were analyzed by ELISA according to manufacturer's protocol (IBL International). […]

The test system of experiment [2] is tcOPN-PADRE peptide, PADRE peptide, tcOPN protein or OPN protein. The experiment is described as follows: Antibody ELISA on plasma of immunized mice. The experiment is classed as in vivo. The note with it: plasma of immunized ApoE-/- mice. The protocol:
tcOPN-PADRE peptide, PADRE peptide, tcOPN protein or OPN protein was used for coating (20 μg/mL of each in PBS) microtiter plates (Nunc MaxiSorp, Nunc) over night at 4° C. Coated plates were washed with PBS with 0.05% Tween-20 and thereafter blocked with SuperBlock in Tris-buffered saline (TBS, Pierce) during 30 minutes at room temperature (RT) followed by an incubation of mouse plasma diluted 1:100 or 1:1000 in PBS-0.05% Tween-20 for 2 hours at RT. After rinsing, bound antibodies were detected using biotinylated goat anti-mouse IgGla or IgG2 antibodies (Jackson ImmunoResearch) that were incubated for 2 hours at RT. After washing, alkaline phosphatase-conjugated streptavidin (Sigma) was added and color reaction was developed using phosphatase substrate kit (Pierce). The absorbance (405 nm) was measured after 1 hour of incubation at room temperature. Mean values were calculated after subtraction of background absorbance.

Experiment [3] concerns ApoE-/- mice. The experiment is described as follows: Plasma cytokine levels (Bioplex multiplex) in immunized ApoE-/- mice on HFD. The experiment is classed as in vivo. The note with it: mean ± SD. The text has this: Female C57BL/6 Apoe^-/- mice (Jaxmice, USA) were immunized with tcOPN-PADRE or equal amounts of PADRE peptide using Alum (Pierce) as adjuvant, followed by two booster injections after two and five weeks (FIG. 1B). During the advanced study all mice received a final booster one weak prior to termination in order to analyze the effect on immune cells (FIG. 1B). Mice were fed a high-fat diet (HFD), 21% cocoa fat, 0.15% cholesterol, starting one week after the last booster injection. For early assessment of atherosclerosis mice were kept on HFD during 8 weeks before sacrifice. Mice that were allowed to develop a more advanced stage of atherosclerosis were kept on HFD during 15 weeks (FIG. 1B). For early atherosclerosis assessment two different lengths of immunized tcOPN-PADRE peptides (SEQ ID Nos: 6 and 7) were evaluated, while for advanced atherosclerosis assessment mice were immunized with shorter tcOPN-PADRE (SEQ ID No: 6) which was based on a tcOPN of 11 amino acids (SEQ ID NO: 4). Tissue was preserved as described previously. All animal experiments were approved by the Animal Care and Use Committee. Cytokine levels for IL-1β, IL-2, IL-4, IL-5, IL-6, IL-10, IL-13, IL-17, IL-12(p70), IFNγ, TNFα and MCP-1 were analyzed in plasma using Bioplex multiplex technology (Bio-Rad) according to manufacturer's protocol. Plasma levels for OPN and tcOPN were analyzed by ELISA according to manufacturer's protocol (IBL International). Plasma cholesterol was quantified colorimetrically using Infinity Cholesterol (ThermoTrace).

For experiment [4], the system named is Blood monocytes from ApoE-/- mice (CD11b+). In words: Transwell migration assay, blood monocytes. The note with it: 10 ng/ml in lower chamber, 2 hours, vs buffer alone. In kind it is cell-based. The protocol: (§1) Monocyte cell migration was quantified in 24-well transwell inserts with polycarbonate filters (8-μm pore size) (Corning Costar). THP-1 monocytes (0.5×10^4 in 100 μl of RPMI 1640 medium) or murine blood cells from ApoE^-/- mice (25 μl in 75 μl of RPMI 1640 medium) were added to the upper chamber of the insert. The lower chamber contained 600 μl of RPMI 1640 with or without 10ng/ml tcOPN or OPN protein. The plates were incubated at 37° C. in 5% CO2 during 2 hours and migrated cells in the lower chamber were counted using flow cytometry. Blood monocytes were characterized with the monocyte FACS panel described above. In blocking experiment, tcOPN protein were pre-incubated with plasma (dilution 1:100) pooled from PADRE ctrl mice or tcOPN-PADRE mice over night at 4° C. prior to the migration experiment.

The test system of experiment [5] is human monocyte THP-1 cells. In words: Transwell migration assay, THP-1. In kind it is cell-based. The note with it: 10 ng/ml in lower chamber, 2 hours, vs buffer alone or full-length OPN. The protocol:
as §1

For “AKFVAAWTLKAAAGRGDSLAYGLR (PADRE-tcOPN short) [short tcOPN-PADRE peptide]”, in the experiment on ApoE-/- mice [1], the “Plaque area in the aortic arch, en face preparations” value is reported as “smaller plaque area” and the Subvalvular plaque area entry was “recapitulated the difference”.

As for AKFVAAWTLKAAA (PADRE), in experiment [2], the “Antibodies (IgG) against the tcOPN-PADRE peptide” value is given as “did not develop antibodies” and the “Antibodies recognizing PADRE peptide” value is “low levels”. In the experiment on ApoE-/- mice [3] (8 week HFD), the “Plasma IFNγ” value was 312 ± 225 pg/mL, the “Plasma IL-2” value amounted to 45 ± 15 pg/mL, the “Plasma IL-5” value is 111 ± 56 pg/mL and the “Plasma IL-6” value was determined as 33 ± 35 pg/mL. Also, in the experiment with ApoE-/- mice [3] (8 week HFD), the “Plasma IL-10” value came to 77 ± 32 pg/mL, the “Plasma IL-13” value is 234 ± 129 pg/mL, the “Plasma IL-17” value is 162 ± 62 pg/mL and the “Plasma TNFα” value is 26 ± 0 pg/mL. Besides, the “Plasma MCP-1” value with ApoE-/- mice [3] (8 week HFD, * significant difference PADRE vs tcOPN-PADRE) was 835 ± 187 pg/mL. Moreover, in the experiment with ApoE-/- mice [3] (15 week HFD), the “Plasma IFNγ” value worked out at 48 ± 24 pg/mL, the “Plasma IL-2” value came to 43 ± 21 pg/mL, the “Plasma IL-4” value was 21 ± 7 pg/mL and the “Plasma IL-5” value was determined as 110 ± 32 pg/mL. In addition, in the experiment on ApoE-/- mice [3] (15 week HFD), the “Plasma IL-6” value is 28 ± 11 pg/mL, the “Plasma IL-10” value came to 172 ± 64 pg/mL, the “Plasma IL-13” value came to 1153 ± 439 pg/mL and the “Plasma IL-17” value was 148 ± 27 pg/mL. For the same substance, in the experiment with ApoE-/- mice [3] (15 week HFD), the “Plasma MCP-1” value was 703 ± 386 pg/mL and the “Plasma TNFα” value was 712 ± 249 pg/mL.

For “tcOPN: recombinant OPN cleaved with thrombin, C-terminal fragment removed (SLAYGLR)”, the “Monocyte migration towards the protein” value in experiment [4] and in experiment [5] was “increased migration” throughout.
